Laboratory results as given in patent publication US20220387375A1, “TRPV1 ACTIVATION-MODULATING COMPLEX MIXTURES OF CANNABINOIDS AND/OR TERPENES” (GBS Global Biopharma, Inc., priority 2018, published 2022).

Tests used:
TRPV1 [1] = molecular target: T1, TRPV1 (Rattus norvegicus, UniProt O35433); assay: Bulk calcium assay (Fluo-4) in HEK-TRPV1 overexpressing cells; assay type: cell-based; conditions: for TRPV1-mediated calcium influx compared to vehicle: terpene 10 μM, vehicle subtracted (FIG. 14)
T1 construct: FLAG; expressed in transfected cells
T1 sequence (O35433 whole entry): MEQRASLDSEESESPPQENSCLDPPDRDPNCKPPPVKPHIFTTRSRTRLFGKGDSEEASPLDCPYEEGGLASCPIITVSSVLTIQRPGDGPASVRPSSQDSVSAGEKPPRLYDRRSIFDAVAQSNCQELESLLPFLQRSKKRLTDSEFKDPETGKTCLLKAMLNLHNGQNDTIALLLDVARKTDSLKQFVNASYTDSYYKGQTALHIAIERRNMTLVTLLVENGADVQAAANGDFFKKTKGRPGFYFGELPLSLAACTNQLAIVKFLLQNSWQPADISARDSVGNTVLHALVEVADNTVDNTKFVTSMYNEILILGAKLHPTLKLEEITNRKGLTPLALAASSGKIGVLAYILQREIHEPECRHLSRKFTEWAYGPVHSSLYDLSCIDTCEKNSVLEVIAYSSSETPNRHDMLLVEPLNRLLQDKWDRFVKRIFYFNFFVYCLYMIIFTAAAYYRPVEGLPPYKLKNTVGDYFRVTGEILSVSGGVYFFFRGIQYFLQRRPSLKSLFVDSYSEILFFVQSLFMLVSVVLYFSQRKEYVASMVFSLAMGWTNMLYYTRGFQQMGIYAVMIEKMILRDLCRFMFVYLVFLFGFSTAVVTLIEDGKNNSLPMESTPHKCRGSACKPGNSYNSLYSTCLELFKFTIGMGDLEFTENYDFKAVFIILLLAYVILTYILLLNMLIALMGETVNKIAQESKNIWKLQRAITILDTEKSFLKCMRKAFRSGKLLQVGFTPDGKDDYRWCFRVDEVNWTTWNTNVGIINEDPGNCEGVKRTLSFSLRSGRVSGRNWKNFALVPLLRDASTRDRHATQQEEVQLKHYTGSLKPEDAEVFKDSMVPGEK
Method: Cells were washed and incubated with 0.2 micromolar Fluo-4 for 30 minutes at 37° C. in a standard modified Ringer's solution of the following composition (in mM): NaCl 145, KCl 2.8, CsCl 10, CaCl2 10, MgCl2 2, glucose 10, Hepes·NaOH 10, pH 7.4, 330 mOsm. Cells were transferred to 96-well plates at 50,000 cells/well and stimulated as indicated. Calcium signals were acquired using a Flexstation 3 (Molecular Devices, Sunnydale, USA). Data was analyzed using SoftMax® Pro 5 (Molecular Devices). Where indicated, nomically calcium-free external conditions were achieved by the preparation of 0 mM CaCl2 Ringer solution containing 1 mM EGTA.
The cell culture system described in U.S. patent application Ser. No. 15/986,316 was used to test the TRPV1-mediated calcium response to various terpenes. The HEK293 cell line was stably transfected with the pcDNA6TR (Invitrogen, CA) plasmid (encoding the tetracycline-sensitive TREx repressor protein), and was maintained in DMEM+10% fetal bovine serum (inactivated at 55° C. for 1 h)+2 mM glutamine in humidified 5% CO2 atmosphere at 37° C. Selection pressure on the TRex 293 cells was maintained by continuous culture in 10 μg/ml Blasticidin (Sigma, St Louis, Mo.).
For production of TRex HEK293 cells with inducible expression of TRPV1, parental cells were electroporated with the rat TRPV1 cDNA in the pcDNA4TO vector and clonal cell lines were selected by limiting dilution in the presence of 400 μg/ml zeocin (Invitrogen, CA). TRPV1 expression was induced using 1 μg/ml tetracycline for 16 h at 37° C. Stable lines were screened for inducible protein expression using anti-FLAG Western blot, and inducible expression was confirmed.
Calcium responses mediated by TRPV1 were tested by calcium assay in the cell culture system. Cells were washed and incubated with 0.2 μM fluo-4 acetoxymethyl ester (“Fluo-4”) for 30 minutes at 37° C. in a standard modified Ringer's solution of the following composition (in mM): NaCl 145, KCl2.8, CsCl10, CaCl2 10, MgCl2 2, glucose 10, Hepes·NaOH 10, pH 7.4, 330 mOsm. Cells were transferred to 96-well plates at 50,000 cells/well and stimulated as indicated. The terpenes used were alpha-bisabool, alpha-pinene, myrcene, camphene, linalool, ocimene, humulene, beta-caryophyllene, beta-pinene, limonene, and nerolidol. The terpenes were diluted in DMSO and added to the wells to a final concentration of 10 μM. Vehicle (DMSO) alone was run as a negative control and subtracted from the terpene traces. Calcium signals were acquired using a Flexstation 3 (Molecular Devices, Sunnydale, USA). Data was analyzed using SoftMax® Pro 5 (Molecular Devices).
Calcium responses mediated by TRPA1, TRPM8, TRPV2, and TRPV1 were tested by calcium assay in the cell culture system. Cells were washed and incubated with 0.2 μM fluo-4 acetoxymethyl ester (“Fluo-4”) for 30 minutes at 37° C. in a standard modified Ringer's solution of the following composition (in mM): NaCl 145, KCl 2.8, CsCl 10, CaCl2 10, MgCl2 2, glucose 10, Hepes·NaOH 10, pH 7.4, 330 mOsm. Cells were transferred to 96-well plates at 50,000 cells/well and stimulated with 10 μM myrcene diluted in DMSO. Vehicle (DMSO) was used as a negative control. Vehicle traces were subtracted from the myrcene traces for each cell line.
As shown in FIGS. 16A-H, a variety of cannabinoids were capable of initiating Ca^2+ fluxes in HEK-TRPV1 overexpressing cells, except for cannabigerol and cannabinol. Comparative responses to a single dose (10 μM concentration) of a variety of cannabinoids were made in the presence of 1 mM external Ca^2+, which are population-based, or bulk Ca^2+, measurements with each trace representing averaged triplicates of 100,000 cells per sample. […] For each of the cannabinoid compounds, dose responses at the population level were performed. […] The lower limit of detectable calcium responses in this system varied from 10-100 nM (CBDV, CBGA) to 1-10 μM.

TRPV1 [2] = molecular target: T1, TRPV1; assay: Whole-cell patch clamp of TRPV1 currents in HEK293 cells overexpressing TRPV1 (HEK293-V1); assay type: cell-based; conditions: for effect of increasing internal calcium (0, 180, 620 nM) on falling phase or inactivation kinetics: 10 μM myrcene, then 1 μM capsaicin; for time course of induced TRPV1 current (sustained or inactivating): cannabinoid at 50, 5 μM myrcene or 1 μM capsaicin; for ion selectivity / state of TRPV1 activation: 10 μM capsaicin
Method: HEK TRexTRPV1 were cultured in DMEM, 10% Fetal Bovine Serum, 2 mM Lglutamine, 10 μg/ml Blasticidin (Calbiochem, San Diego Calif.), 400 μg/ml Zeocin (InvivoGen, San Diego Calif.), where indicated transgene expression was induced using 1 μg/ml Tetracycline for 16-24 hrs. Unless otherwise indicated, basal expression of TRPV1 without induction was sufficient for these studies, and comparisons were made to untransfected HEK where needed. HEKTRex293 over-expressing human TRPV2, human TRPA1 and human TRPM8 were obtained from SB Drug Discovery (Glasgow, Scotland) and cultured as described above. The cannabinoids and terpenes were assayed in HEK cells that have been transfected with the TRPV1 ion channel protein. These cells are called HEK293-V1 cells.
This technique is used to study ionic currents from HEK293-V1. The voltage across the cell membrane is controlled and the ionic currents associated with changes in voltage are measured. A micropipette tip is pulled to a few micrometers in diameter followed by heating the tip to produce a smooth surface that assists in forming a high resistance seal with the cell membrane. To obtain this high resistance seal, the micropipette is pressed against a cell membrane and suction is applied. The membrane then fuses onto the glass surface creating a high resistance in the gigaohm range. This makes it possible to isolate electronically the ionic currents measured across the membrane patch or across the entire cell.
Patch-clamp experiments were performed in the whole-cell configuration at 21-25° C. Patch pipettes had resistances of 2-3 MΩ. Data was acquired with PatchMaster software (HEKA, Lambrecht, Germany), controlling an EPC-9 amplifier. Voltage ramps of 50 ms spanning the voltage range from −100 to 100 mV were delivered from a holding potential of 0 mV at a rate of 0.5 Hz over a period of 500 ms to 180 seconds (3 minutes). Voltages were corrected for a liquid junction potential of 10 mV. Currents were filtered at 2.9 kHz and digitized at 100 μs intervals. Capacitive currents were determined and corrected before each voltage ramp. The development of currents for a given potential was extracted from individual ramp current records by measuring the current amplitudes at voltages of −80 mV and +80 mV. Data were analyzed with FitMaster (HEKA, Lambrecht, Germany), and IgorPro (WaveMetrics, Lake Oswego, Oreg., USA). Where applicable, statistical errors of averaged data are given as mean±s.e.m with n determinations. The activated current amplitudes are analyzed by nA rather than pA/pF. […] Also the cell size selected for patching was in the 9 -12 pF range.
For patch-clamp recordings, HEK293 cells were kept in a standard sodium-based external Ringer's solution containing (mM): 140 NaCl, 1 CaCl2, 2 MgCl2, 2.8 KCl, 11 glucose, 10 HEPES-NaOH with a pH of 7.2 and osmolarity of 300 mOsmol. To assess the effects of external Calcium (Ca) on TRPV1 inactivation kinetics, Ca at different levels were tested including 0, 1, and 3 mM. In Experiments with zero external Ca, EGTA 10 mM was added and the Na concentration was lowered to 130 mM to maintain standard osmotic conditions at 300 mOsmol. For rapid external solution application and exchanges we used the SmartSquirt delivery system (Auto-Mate Scientific, San Francisco Calif., USA) that included four cryo tubes allowing for solution exchanges within one patch. This system included a ValveLink TTL interface between the electronic valves and the EPC10 amplifier (HEKA, Lambrecht, Germany). This electronic configuration allowed for programmable solution changes via the PatchMaster software (HEKA, Lambrecht, Germany).

C=CC(C)=CCC=C(C)C [ocimene]
TRPV1-mediated calcium influx compared to vehicle (TRPV1 [1]): little to no calcium influx

C=CC(=C)CCC=C(C)C [myrcene, 7-methyl-3-methylideneocta-1,6-diene]
inward current induced (TRPV1 [2]; 5 μM myrcene, average of 6 independent experiments): approximately 0.5 nA | effect of increasing internal calcium (0, 180, 620 nM) on falling phase or inactivation kinetics (TRPV1 [2]): minor effect | IV relationship / TRPV1 channel state (TRPV1 [2]; 50 μM myrcene (FIG. 10C)): state 1 | IV relationship / TRPV1 channel state (TRPV1 [2]; 150 μM myrcene (FIG. 11)): state 1 | time course of induced TRPV1 current (sustained or inactivating) (TRPV1 [2]): rapidly inactivating | current induced (TRPV1 [2]; myrcene 5 μM, 10 μM and 150 μM (FIGS. 8A-8C)): 0.5-2.2 nA | activation of cells overexpressing TRPV1 (calcium entry) (TRPV1 [1]; 10 μM myrcene): activated | TRPV1-mediated calcium influx compared to vehicle (TRPV1 [1]): greatest amount of calcium influx

CC(C)=CCC[C@](C)(O)[C@@H]1CC=C(C)CC1 [alpha-bisabool]
TRPV1-mediated calcium influx compared to vehicle (TRPV1 [1]): little to no calcium influx

Oc1cc2c(cc1O)CN(C(=S)NCCc1ccc(Cl)cc1)CCC2 [Capsazepine, reference compound]
effect on capsaicin-induced TRPV1 current (TRPV1 [2]; CPZ 10 μM for 30 seconds after 50 nM Capsaicin for 60 seconds): reduced both the inward and outward currents | effect on capsaicin-activated TRPV1 channel (state 1 and state 2) (TRPV1 [2]; CPZ added after 10 μM capsaicin): rapid TRPV1 channel deactivation | effect on CBD-induced TRPV1 current (TRPV1 [2]; CPZ application 30 seconds after CBD 30 μM): reduced

C=C1CC/C=C(\C)CC[C@@H]2[C@@H]1CC2(C)C [beta-caryophyllene]
TRPV1-mediated calcium influx compared to vehicle (TRPV1 [1]): little to no calcium influx

C=CC(C)(O)CCC=C(C)CCC=C(C)C (stereo not drawn) [nerolidol]
TRPV1-mediated calcium influx compared to vehicle (TRPV1 [1]): brief initial calcium influx

C=C1C2CCC(C2)C1(C)C (stereo not drawn) [camphene]
TRPV1-mediated calcium influx compared to vehicle (TRPV1 [1]): little to no calcium influx

C=CC(C)(O)CCC=C(C)C (stereo not drawn) [linalool]
TRPV1-mediated calcium influx compared to vehicle (TRPV1 [1]): little to no calcium influx

C=C1CCC2CC1C2(C)C (stereo not drawn) [beta-pinene]
TRPV1-mediated calcium influx compared to vehicle (TRPV1 [1]): little to no calcium influx

C=C(C)[C@H]1CC=C(C)CC1 [limonene]
TRPV1-mediated calcium influx compared to vehicle (TRPV1 [1]): little to no calcium influx

C/C1=C\CC/C(C)=C/CC(C)(C)/C=C/C1 [humulene]
TRPV1-mediated calcium influx compared to vehicle (TRPV1 [1]): little to no calcium influx

COc1cc(CNC(=O)CCCC/C=C/C(C)C)ccc1O [capsaicin, Capsaicin, reference compound]
current induced (TRPV1 [2]; 1 μM capsaicin (not shown), comparison to myrcene): 4-10 nA | ion selectivity / state of TRPV1 activation (TRPV1 [2]; absence of internal BAPTA and Ca2+): Ca^2 ion selective TRPV1 activation | ion selectivity / state of TRPV1 activation (TRPV1 [2]; presence of internal 10 mM BAPTA and 150 nM Ca2+): Na^+ ion selective TRPV1 activation | effect of increasing internal calcium (0, 180, 620 nM) on falling phase or inactivation kinetics (TRPV1 [2]): stronger effect | type of TRPV1 current recorded (TRPV1 [2]; Capsaicin 50 nM for 60 seconds, Ca 0 internally and externally): outwardly rectifying TRPV1 current | rectification of current (resulted in rectifying currents or not) (TRPV1 [2]; Capsaicin 500 nM): did not | rectification of current (TRPV1 [2]; Capsaicin low (30 nM) and medium (100 nM) doses): rectifying currents | IV relationship / TRPV1 channel state (TRPV1 [2]; after 1 μM capsaicin): linear due to TRPV1 transitioning to the dilated state (state 2) | time course of induced TRPV1 current (sustained or inactivating) (TRPV1 [2]): sustained

CC1=CCC2CC1C2(C)C (stereo not drawn) [alpha-pinene]
TRPV1-mediated calcium influx compared to vehicle (TRPV1 [1]): little to no calcium influx
